Assay results from patent US20170094972A1, “Compounds and Compositions Having Knock-Down Activity Against Insect Pests” (priority 2015, published 2017).

Columns and labels:
Aedes aegypti = assay: 12 well plate knockdown test; assay type: in vivo; conditions: 1 h, read-out: Aedes aegypti 1 hour % KD; for pest or weed control at 0.2 ppm: Rate 0.2 PPM; for pest or weed control at 2 ppm: Rate 2 PPM; for pest or weed control at 20 ppm: Rate 20 PPM; for pest or weed control at 200 ppm: Rate 200 PPM
Protocol: (§1) The individual wells of a twelve (12) well tissue culture plates were treated with 100 μl of an ethanol solution containing a test compound at a defined concentration. Once the deposits were dry, five non-blood fed adult female Aedes aegypti or Anopheles stephensi (between two to five day old) were added to each well, and sustained with a 10% sucrose solution in a cotton wool plug. Assessment of the knockdown after 1 hour was carried out. Where multiple replicates of a treatment have been undertaken, the mean of those replicates is reported.

Anopheles stephensi = assay: 12 well plate knockdown test; assay type: in vivo; conditions: 1 h, read-out: Anopheles stephensi 1 hour % KD; for pest or weed control at 0.2 ppm: Rate 0.2 PPM; for pest or weed control at 2 ppm: Rate 2 PPM; for pest or weed control at 20 ppm: Rate 20 PPM; for pest or weed control at 200 ppm: Rate 200 PPM
Protocol: as §1

Question: What does the source list for `CN(C)C(=O)c1cnccc1C(F)(F)F` [I.4]?
Answer: pest or weed control at 0.2 ppm (Aedes aegypti): 100%; pest or weed control at 2 ppm (Aedes aegypti): 100%; pest or weed control at 20 ppm (Aedes aegypti): 100%; pest or weed control at 200 ppm (Aedes aegypti): 100%; pest or weed control at 0.2 ppm (Anopheles stephensi): 40%; pest or weed control at 2 ppm (Anopheles stephensi): 100%; pest or weed control at 20 ppm (Anopheles stephensi): 100%; pest or weed control at 200 ppm (Anopheles stephensi): 100%

Question: Which results are given for `CCCN1CN=C(c2cnccc2C(F)(F)F)OC1=O` [I.16]?
Answer: pest or weed control at 0.2 ppm (Aedes aegypti): 0%; pest or weed control at 2 ppm (Aedes aegypti): 60%; pest or weed control at 20 ppm (Aedes aegypti): 60%; pest or weed control at 200 ppm (Aedes aegypti): 100%; pest or weed control at 0.2 ppm (Anopheles stephensi): 0%; pest or weed control at 2 ppm (Anopheles stephensi): 0%; pest or weed control at 20 ppm (Anopheles stephensi): 0%; pest or weed control at 200 ppm (Anopheles stephensi): 0%

Question: Which pest or weed control at 0.2 ppm (Aedes aegypti) does the source give for `N/C(=N/C(=O)c1cnccc1C(F)(F)F)c1ncccn1` [I.14] here?
Answer: 0%

Question: What about the pest or weed control at 2 ppm (Aedes aegypti) of the same compound?
Answer: 100%

Question: And the pest or weed control at 20 ppm (Aedes aegypti)?
Answer: 100%

Question: What about the pest or weed control at 200 ppm (Aedes aegypti) of the same compound?
Answer: 100%

Question: And the pest or weed control at 0.2 ppm (Anopheles stephensi)?
Answer: 40%

Question: And the pest or weed control at 2 ppm (Anopheles stephensi)?
Answer: 40%

Question: What about the pest or weed control at 20 ppm (Anopheles stephensi) of the same compound?
Answer: 100%

Question: What about the pest or weed control at 200 ppm (Anopheles stephensi) of the same compound?
Answer: 100%

Question: With `O=C(NCc1ccc(Cl)cc1)c1cnccc1C(F)(F)F` [I.2] as the compound, how does the pest or weed control at 0.2 ppm (Aedes aegypti) read?
Answer: 100%

Question: And the pest or weed control at 2 ppm (Aedes aegypti)?
Answer: 100%

Question: And the pest or weed control at 20 ppm (Aedes aegypti)?
Answer: 100%

Question: And the pest or weed control at 200 ppm (Aedes aegypti)?
Answer: 100%

Question: What about the pest or weed control at 0.2 ppm (Anopheles stephensi) of the same compound?
Answer: 0%

Question: What about the pest or weed control at 2 ppm (Anopheles stephensi) of the same compound?
Answer: 60%

Question: And the pest or weed control at 20 ppm (Anopheles stephensi)?
Answer: 80%

Question: What about the pest or weed control at 200 ppm (Anopheles stephensi) of the same compound?
Answer: 100%

Question: How did the pest or weed control at 0.2 ppm (Aedes aegypti) turn out when `CCN(Cc1ccccc1)C(=O)c1cnccc1C(F)(F)F` [I.15] was run?
Answer: 100%

Question: What about the pest or weed control at 2 ppm (Aedes aegypti) of the same compound?
Answer: 100%

Question: And the pest or weed control at 20 ppm (Aedes aegypti)?
Answer: 100%

Question: And the pest or weed control at 200 ppm (Aedes aegypti)?
Answer: 100%

Question: What about the pest or weed control at 0.2 ppm (Anopheles stephensi) of the same compound?
Answer: 0%

Question: What about the pest or weed control at 2 ppm (Anopheles stephensi) of the same compound?
Answer: 0%

Question: What about the pest or weed control at 20 ppm (Anopheles stephensi) of the same compound?
Answer: 0%

Question: And the pest or weed control at 200 ppm (Anopheles stephensi)?
Answer: 0%

Question: `CC(C)n1nc(-c2cnccc2C(F)(F)F)oc1=O` [I.7] was tested. Which pest or weed control at 0.2 ppm (Aedes aegypti) did it give?
Answer: 100%

Question: What about the pest or weed control at 2 ppm (Aedes aegypti) of the same compound?
Answer: 100%

Question: What about the pest or weed control at 20 ppm (Aedes aegypti) of the same compound?
Answer: 100%

Question: And the pest or weed control at 200 ppm (Aedes aegypti)?
Answer: 100%

Question: And the pest or weed control at 0.2 ppm (Anopheles stephensi)?
Answer: 0%

Question: And the pest or weed control at 2 ppm (Anopheles stephensi)?
Answer: 0%

Question: What about the pest or weed control at 20 ppm (Anopheles stephensi) of the same compound?
Answer: 0%

Question: What about the pest or weed control at 200 ppm (Anopheles stephensi) of the same compound?
Answer: 20%

Question: For `C=CCONC(=O)c1cnccc1C(F)(F)F` [I.17], which pest or weed control at 0.2 ppm (Aedes aegypti) is on record?
Answer: 0%

Question: And the pest or weed control at 2 ppm (Aedes aegypti)?
Answer: 0%

Question: What about the pest or weed control at 20 ppm (Aedes aegypti) of the same compound?
Answer: 0%

Question: And the pest or weed control at 200 ppm (Aedes aegypti)?
Answer: 0%

Question: And the pest or weed control at 0.2 ppm (Anopheles stephensi)?
Answer: 0%

Question: And the pest or weed control at 2 ppm (Anopheles stephensi)?
Answer: 0%

Question: What about the pest or weed control at 20 ppm (Anopheles stephensi) of the same compound?
Answer: 20%

Question: What about the pest or weed control at 200 ppm (Anopheles stephensi) of the same compound?
Answer: 100%

Question: Which results are given for `CC(C)NOC(=O)c1cnccc1C(F)(F)F` [I.12]?
Answer: pest or weed control at 0.2 ppm (Aedes aegypti): 100%; pest or weed control at 2 ppm (Aedes aegypti): 100%; pest or weed control at 20 ppm (Aedes aegypti): 100%; pest or weed control at 200 ppm (Aedes aegypti): 100%; pest or weed control at 0.2 ppm (Anopheles stephensi): 0%; pest or weed control at 2 ppm (Anopheles stephensi): 80%; pest or weed control at 20 ppm (Anopheles stephensi): 100%; pest or weed control at 200 ppm (Anopheles stephensi): 100%

Question: `C[Si](C)(C)CNC(=O)c1cnccc1C(F)(F)F` [I.25] was tested. Which pest or weed control at 0.2 ppm (Aedes aegypti) did it give?
Answer: 100%

Question: What about the pest or weed control at 2 ppm (Aedes aegypti) of the same compound?
Answer: 100%

Question: And the pest or weed control at 20 ppm (Aedes aegypti)?
Answer: 100%

Question: What about the pest or weed control at 200 ppm (Aedes aegypti) of the same compound?
Answer: 100%

Question: And the pest or weed control at 0.2 ppm (Anopheles stephensi)?
Answer: 80%

Question: What about the pest or weed control at 2 ppm (Anopheles stephensi) of the same compound?
Answer: 80%

Question: And the pest or weed control at 20 ppm (Anopheles stephensi)?
Answer: 100%

Question: And the pest or weed control at 200 ppm (Anopheles stephensi)?
Answer: 100%

Question: With `FC(F)(F)c1ccncc1C1=NCCN1` [I.20] as the compound, how does the pest or weed control at 0.2 ppm (Aedes aegypti) read?
Answer: 0%

Question: And the pest or weed control at 2 ppm (Aedes aegypti)?
Answer: 40%

Question: What about the pest or weed control at 20 ppm (Aedes aegypti) of the same compound?
Answer: 100%

Question: What about the pest or weed control at 200 ppm (Aedes aegypti) of the same compound?
Answer: 100%

Question: And the pest or weed control at 0.2 ppm (Anopheles stephensi)?
Answer: 20%

Question: And the pest or weed control at 2 ppm (Anopheles stephensi)?
Answer: 60%

Question: What about the pest or weed control at 20 ppm (Anopheles stephensi) of the same compound?
Answer: 100%

Question: And the pest or weed control at 200 ppm (Anopheles stephensi)?
Answer: 100%
